Values of other authors in US20030031651A1, “Methods and reagents for cell transplantation” (priority 2001, published 2003).

Tested on: BMSCs
Details: BMSCs exposed to 5-azacytidine

## Nc1ncn([C@@H]2O[C@H](CO)[C@@H](O)[C@H]2O)c(=O)n1 [5-azacytidine]
  c-abl and interleukin-6 transcripts: rapidly upregulate
  expression of collagen I: downregulating
